Results reported in patent US20110159086A1, “PHARMACEUTICAL FORMULATION COMPRISING A CB1-RECEPTOR COMPOUND IN A SOLID SOLUTION AND/OR SOLID DISPERSION” (LABORATORIOS DEL DR. ESTEVE, S.A., priority 2008, published 2011).
Like-named read-outs stand apart in the source and are kept apart here.

Assays:
[1] = Dissolution profiles of the hot melt extrusion formulations, Non-Sink conditions (HCL 0.1N, pH 1.2); format: physicochemical; settings: for % dissolved (pH 1.2): Non-Sink, HCL 0.1N pH 1.2, paddles 50 rpm, 1000 ml, 37° C.
Source text: (§1) A mixture has been prepared during two minutes in proportion as described in Table 4. The “Hot Melt Extrusion” formulations, in percentage, have been developed for each series.
(§2) The mixture has been loaded in an extruder and the temperature has been adjusted according to the type of polymer used, as described below:
(§3) The obtained extrudates have been cooled at room temperature and milled. The particle size has then been homogenized. A powder has been obtained which has then been dosified in capsules for administration
(§4) The dissolution apparatus used was HANSON […]. SR8 PLUS, the UV spectrophotometer HEWLET PACKARD 8452.
In the NON-SINK conditions, the active ingredient concentration in the dissolution medium is above the saturation concentration, i.e. the active ingredient is in a medium in which it is not soluble.
The conditions used for the Non-Sink assays were:
Dissolution medium: HCL 0.1N, pH 1.2
(§5) Vessel temperature 37° C.

[2] = Dissolution profiles of the hot melt extrusion formulations, Sink conditions (HCL 0.1N, pH 1.2 + Sodium Lauryl Sulfate 0.1%); format: physicochemical; settings: for % dissolved (pH 1.2 SLS 0.1%): Sink, HCL 0.1N pH 1.2 + SLS 0.1%, paddles 50 rpm, 1000 ml, 37° C.
Source text: as §1, §2, §3, §4
In the SINK conditions, the active ingredient concentration in the dissolution medium is below 20% of the saturation concentration, i.e. the active ingredient will dissolve easily in the medium.
The conditions used for the Sink assays were:
Dissolution medium: HCL 0.1N, pH 1.2+Sodium Lauryl Sulfate 0.1%
as §5

[3] = Pharmacokinetic study in rats, plasma levels of the (4S,5S) cis enantiomer by chiral LC-MS/MS; format: in vivo, male Wistar Hannover rats; settings: for Vd: male, rat
[4] = Solubility increase (Δ) = FD60 min formulation/FD % 60 min (drug), FD = dissolved drug fraction
[5] = Wistar Hannover (HSDHan:WIST), po, 20 mg/kg, male rat, single dose, fasting, analyte (4S,5S) cis enantiomer in plasma, suspension = active alone in 5% arabic gum, HME = example 15
[6] = Wistar Hannover, plasma, iv, 1 mg/kg, male rat, solution

Structure (SMILES): C[C@@H]1C(C(=O)NN2[C@H](C)CCC[C@@H]2C)=NN(c2ccc(Cl)cc2Cl)[C@@H]1c1ccc(Cl)cc1 [(4S,5S) cis enantiomer, (4S,5S)-5-(4-chlorophenyl)-1-(2,4-dichlorophenyl)-N-(cis-2,6-dimethylpiperidin-1-yl)-4-methyl-4,5-dihydro-1H-pyrazole-3-carboxamide]
- Increase (Δ) 60 min. Non Sink Conditions [1, 4]: 0.00
- % dissolved (pH 1.2) ([1]; time 0 min): 0.0%
- % dissolved (pH 1.2) ([1]; time 5 min): 2.2%
- % dissolved (pH 1.2) ([1]; time 10 min): 1.9%
- % dissolved (pH 1.2) ([1]; time 15 min): 1.4%
- % dissolved (pH 1.2) ([1]; time 20 min): 1.5%
- % dissolved (pH 1.2) ([1]; time 30 min): 1.6%
- % dissolved (pH 1.2) ([1]; time 45 min): 2.7%
- % dissolved (pH 1.2) ([1]; time 60 min): 2.9%
- Increase (Δ) 60 min. Sink Conditions [2, 4]: 0.00
- % dissolved (pH 1.2 SLS 0.1%) ([2]; time 0 min): 0.0%
- % dissolved (pH 1.2 SLS 0.1%) ([2]; time 5 min): 4.1%
- % dissolved (pH 1.2 SLS 0.1%) ([2]; time 10 min): 6.5%
- % dissolved (pH 1.2 SLS 0.1%) ([2]; time 15 min): 11.8%
- % dissolved (pH 1.2 SLS 0.1%) ([2]; time 20 min): 16.0%
- % dissolved (pH 1.2 SLS 0.1%) ([2]; time 30 min): 24.3%
- % dissolved (pH 1.2 SLS 0.1%) ([2]; time 45 min): 37.8%
- % dissolved (pH 1.2 SLS 0.1%) ([2]; time 60 min): 53.0%
- AUC(0-t) [3, 5]: 374 ng·h/mL
- Tmax [3, 5]: 6 h
- Cmax ([3]; Wistar Hannover (HSDHan:WIST), po, 20 mg/kg, male rat, single dose, fasting, analyte (4S,5S) cis enantiomer in plasma, suspension = active alone in 5% arabic gum, HME = example 15, read-out: Cmax): 103 ng/mL
- AUC(0-inf) [3, 6]: 559 ng·h/mL
- AUC(0-t) [3, 6]: 534 ng·h/mL
- clearance [3, 6]: 30 mL/min/kg
- half-life [3, 6]: 8.2 h
- Cmax ([3]; Wistar Hannover, plasma, iv, 1 mg/kg, male rat, solution, read-out: Cmax (C0 for intravenous)): 828 ng/mL
- Vd ([3]; Wistar Hannover, plasma, iv, 1 mg/kg, iv, 1 mg/kg, solution, read-out: Vd): 21.1 L/kg
- Vd ([3]; Wistar Hannover, plasma, iv, 1 mg/kg, iv, 1 mg/kg, solution, read-out: Vss): 8.7 L/kg
- F (Absolute bioavailability estimated from AUC0-t) ([3]; po, 20 mg/kg, male rat, versus iv 1 mg/kg solution, suspension = active alone in 5% arabic gum, HME = example 15): 3.5%
